Values quoted from earlier work as cited in patent US6316027A, “Fast-dissolving dosage forms for dopamine agonists” (priority 1995, dated 2001).

How the values were obtained:
[1] = not given; remark: listed apart in the source
[2] = not given; remark: listed apart in the source
[3] = acidic environment
[4] = sub-lingual tablets, prolonged use

SMILES	fraction entering the brain (in vivo)	absorption from the small intestine (oral)	incidence of malignant melanoma ([1]; patients undergoing treatment with levodopa)	involuntary movements on prolonged use ([1]; prolonged use)	nasal side effects ([2]; intranasal)	presystemic metabolism (first pass effect) ([2]; oral tablets, small intestine and/or liver)	blood urea nitrogen ([2]; oral, long-term studies, stopped after 7-10 days)	buccal mucosal ulceration, share of patients [2, 4]	stomatitis [2, 4]	dopamine agonist side effects ([2]; subcutaneous)	chemical stability [3]
N[C@@H](Cc1ccc(O)c(O)c1)C(=O)O [levodopa]	less than 1%	well absorbed from the small intestine	increased incidence of malignant melanoma	involuntary choreiform movements							
CN1CCc2cccc3c2[C@H]1Cc1ccc(O)c(O)c1-3 [apomorphine, 5,6,6a,7-tetrahydro-6-methyl-4H-dibenzo quinoline-10; 11-diol]					transient nasal blockage, burning sensation and swollen nose and lips	extensive presystemic metabolism	unexplained rises in blood urea nitrogen	half the patients	severe stomatitis	nausea and vomiting	optimal chemical stability in an acidic environment
